Where “and” joins values, the source holds several entries; their conditions need not be identical. Equal values may be shown once. Read-outs that look alike come from different tables or passages of the source.
Key:
[1] = test system: eurkaryotic translation initiation factor 4E-binding protein 1 (EIF-4EBP1); experiment: EIF-4EBP1 phosphorylation levels in patients' PBMCs (mTOR signalling); type: in vivo, human; settings: 5 mg/kg bw daily
Procedure: (§1) In a Phase 1 b clinical trial, monepantel administered as Zolvix daily to four human patients (PA02, PA04, PA06 and PA07) at 5 mg/kg bw provided an anticancer effect by computerised tomography (CT) scanning according to RECIST1.1 criteria. […] Evidence of mTOR pathway signalling inhibition in these patients was supported by the finding of decreased eurkaryotic translation initiation factor 4E-binding protein 1 (EIF-4EBP1) phosphorylation levels from the preparations of PBMCs from PA02, PA04 and PA06 (FIG. 1B). EIF-4EIBP1 phosphorylation levels were not assayed from preparations of PBMCs from PA07.

[2] = test system: treatment naïve B cell lymphoma; experiment: Phase 2 veterinary clinical trial, RECIST 1.1 tumour response; type: in vivo, dog
Procedure: Superficial tumour lesions were measured with calipers, while lesions within the body were assessed by X-Ray, ultrasound, computer tomography (CT) and/or physical palpitation. Baseline Day 0 (D0) predose caliper, X-Ray, ultrasound and CT measurements where available as well as a complete physical examination were recorded.

VERO cells [3] = experiment: cells; settings: Chlorocebus sabaeus, 120 h, read-out: 1050 (estimated from the 8 μM and 40 μM values)
[4] = Blood plasma levels in human patients; type: in vivo; settings: monepantel as Zolvix 5 mg/kg bw daily
Procedure: as §1
Blood plasma monepantel and monepantel sulfone levels of all four patients were recorded at intervals throughout treatment (Table 2).

SARS-CoV-2 [5] = type: cell-based; settings: Calu-3 human cells, concentrations from 3.00 μM down to 0.013 μM
[6] = Blood plasma levels in pet dogs of the veterinary trial; type: in vivo, dog; settings: plasma, oral, 179 mg/kg bw; dog 003-001 that achieved a partial response; read-out: monepantel blood plasma level
Procedure: In a Phase 2 veterinary clinical trial, monepantel was administered as tablets daily to six pet dog patients (dog identification numbers: 001-001, 001-002, 001-003, 003-001, 004-002 and 004-003) with treatment naïve B cell lymphoma at a target dose of 179 mg/kg bw. Superficial tumour lesions were measured with calipers, while lesions within the body were assessed by X-Ray, ultrasound, computer tomography (CT) and/or physical palpitation. Baseline Day 0 (D0) predose caliper, X-Ray, ultrasound and CT measurements where available as well as a complete physical examination were recorded.
An inverse correlation between RECIST1.1 response and blood plasma levels of monepantel and monepantel sulfone was evident. The one dog (003-001) that achieved a partial response, recorded monepantel and […] of 0.1 and 6.7 μM, respectively.

SARS-CoV-2 [7] = type: cell-based; settings: 0.032 μM and 0.064 μM compared to 40 μM and 8 μM values, p<0.05 and <0.001
SARS-CoV-2 [8] = type: cell-based; settings: VERO cells
VERO cells [9] = test system: VERO cells
[10] = test system: ribosomal protein S6 kinase beta-1 (RPS6KB1); experiment: RPS6KB1 phosphorylation levels in patients' PBMCs (mTOR signalling); type: in vivo, human; settings: 5 mg/kg bw daily
[11] = test system: VERO cells infected with SARS-CoV-2; type: cell-based; settings: approximately 5 μM MPL
cancer = experiment: Phase 1b clinical trial, RECIST1.1 by computerised tomography; type: in vivo, human; settings: monepantel as Zolvix daily 5 mg/kg bw
Procedure: as §1

[12] = PA02, after three days of treatment
[13] = PA04, after three days of treatment
[14] = PA06, after three days of treatment
[15] = pet dogs, monepantel tablets daily, target dose 179 mg/kg bw, one value per dog, 179 mg/kg
[16] = six pet dogs, tablets daily, 179 mg/kg bw

C[C@](C#N)(COc1cc(C#N)ccc1C(F)(F)F)NC(=O)c1ccc(SC(F)(F)F)cc1 [MPL, N-[(1S)-1-Cyano-2-(5-cyano-2-trifluoromethyl-phenoxy)-1-methyl-ethyl]-4-trifluoromethylsulfanyl-benzamide]
reduction of PBMC EIF-4EBP1 phosphorylation levels relative to pre-treatment ([1]; PA02, after seven days of treatment): 85.6% | reduction of PBMC EIF-4EBP1 phosphorylation levels relative to pre-treatment [1, 12]: 38.5% | reduction of PBMC EIF-4EBP1 phosphorylation levels relative to pre-treatment [1, 13]: 96.6% | reduction of PBMC EIF-4EBP1 phosphorylation levels relative to pre-treatment [1, 14]: 34.4% | RECIST 1.1 tumour response D14 Target Lesions [2, 15]: PR (PR = partial response) | RECIST 1.1 tumour response Overall [2, 15]: PR (PR = partial response) | target superficial lymph node caliper measurements at D28 ([2]; pet dogs, tablets daily, 179 mg/kg bw): four of four dogs achieving stable target superficial lymph node caliper measurements | RECIST 1.1 responses of the six dogs at D14 [2, 16]: One dog achieved a partial response, four dogs achieved stable disease and one dog had progressive disease | anti-cancer effect at D14 [2, 16]: strong anti-cancer effect | IC50 (VERO cells [3]): ~30 µM | Blood plasma level of monepantel, Average ([4]; 0.25 h, average of patients): 0.010 ∞M | Blood plasma level of monepantel ([4]; 0.25 h, individual patients): 6.46 ng/ml and 0 ng/ml (2×) and 12.2 ng/ml | Blood plasma level of monepantel, Average ([4]; 0.5 h, average of patients): 0.051 ∞M | Blood plasma level of monepantel ([4]; 0.5 h, individual patients): 39.4 ng/mL and 16.1 ng/mL and 10.5 ng/mL and 31 ng/mL | Blood plasma level of monepantel, Average ([4]; 1 h, average of patients): 0.137 ∞M | Blood plasma level of monepantel ([4]; 1 h, individual patients): 110 ng/mL and 46.2 ng/mL and 42.1 ng/mL and 61 ng/mL | Blood plasma level of monepantel, Average ([4]; 2 h, average of patients): 0.298 ∞M | Blood plasma level of monepantel ([4]; 2 h, individual patients): 99.1 ng/mL and 171 ng/mL and 112 ng/mL | Blood plasma level of monepantel, Average ([4]; 4 h, average of patients): 0.353 ∞M | Blood plasma level of monepantel ([4]; 4 h, individual patients): 104 ng/mL and 234 ng/mL and 144 ng/mL and 187 ng/mL | Blood plasma level of monepantel, Average ([4]; 8 h, average of patients): 0.145 ∞M | Blood plasma level of monepantel ([4]; 8 h, individual patients): 62.1 ng/mL and 63.6 ng/mL and 108 ng/mL and 40.2 ng/mL | Blood plasma level of monepantel, Average ([4]; 12 h, average of patients): 0.064 ∞M | Blood plasma level of monepantel ([4]; 12 h, individual patients): 26.9 ng/mL and 24.1 ng/mL and 52.5 ng/mL and 18.6 ng/mL | Blood plasma level of monepantel, Average ([4]; 24 h, average of patients): 0.030 ∞M | Blood plasma level of monepantel ([4]; 24 h, individual patients): 13.7 ng/mL and 11.6 ng/mL and 21.8 ng/mL and 9.95 ng/mL | Blood plasma level of monepantel, Average ([4]; pre-dose D3, average of patients): 10.7 ng/ml and 0.023 ∞M | Blood plasma level of monepantel ([4]; pre-dose D3, individual patients): 16.4 ng/mL and 8.07 ng/mL and 9.99 ng/mL and 8.33 ng/mL | Blood plasma level of monepantel, Average ([4]; pre-dose D4, average of patients): 9.2 ng/ml and 0.019 ∞M | Blood plasma level of monepantel ([4]; pre-dose D4, individual patients): 14.7 ng/mL and 6.98 ng/mL and 8.65 ng/mL and 6.44 ng/mL | Blood plasma level of monepantel, Average ([4]; pre-dose D5, average of patients): 6.9 ng/ml and 0.015 ∞M | Blood plasma level of monepantel ([4]; pre-dose D5, individual patients): 9.94 ng/mL and 6.86 ng/mL and 5.72 ng/mL and 5.03 ng/mL | Blood plasma level of monepantel, Average ([4]; pre-dose D6, average of patients): 6.3 ng/ml and 0.013 ∞M | Blood plasma level of monepantel ([4]; pre-dose D6, individual patients): 9.99 ng/mL and 7.22 ng/mL and 4.62 ng/mL and 3.34 ng/mL | Blood plasma level of monepantel, Average ([4]; pre-dose D7, average of patients): 5.4 ng/ml and 0.011 ∞M | Blood plasma level of monepantel ([4]; pre-dose D7, individual patients): 7.42 ng/mL and 6.39 ng/mL and 4.58 ng/mL and 3.32 ng/mL | Blood plasma level of monepantel, Average ([4]; pre-dose D14, average of patients): 4.4 ng/ml and 0.009 ∞M | Blood plasma level of monepantel ([4]; pre-dose D14, individual patients): 4.85 ng/mL and 5.25 ng/mL and 3.23 ng/mL | Blood plasma level of monepantel, Average ([4]; pre-dose D21, average of patients): 3.8 ng/ml and 0.008 ∞M | Blood plasma level of monepantel ([4]; pre-dose D21, individual patients): 4.34 ng/mL and 3.16 ng/mL | Blood plasma level of monepantel, Average ([4]; pre-dose D28, average of patients): 3.8 ng/ml and 0.008 ∞M | Blood plasma level of monepantel ([4]; pre-dose D28, individual patients): 4.65 ng/mL and 2.96 ng/mL | concentration at 0.25 h ([4]; plasma, oral, 5 mg/kg bw, 0.25 h, average of patients, read-out: Blood plasma level of monepantel, Average): 4.7 ng/mL | concentration at 0.5 h ([4]; plasma, oral, 5 mg/kg bw, 0.5 h, average of patients, read-out: Blood plasma level of monepantel, Average): 24.3 ng/mL | concentration at 1 h ([4]; plasma, oral, 5 mg/kg bw, 1 h, average of patients, read-out: Blood plasma level of monepantel, Average): 64.8 ng/mL | concentration at 2 h ([4]; plasma, oral, 5 mg/kg bw, 2 h, average of patients, read-out: Blood plasma level of monepantel, Average): 141 ng/mL | concentration at 2 h ([4]; plasma, oral, 5 mg/kg bw, 2 h, individual patients, read-out: Blood plasma level of monepantel): 183 ng/mL | concentration at 4 h ([4]; plasma, oral, 5 mg/kg bw, 4 h, average of patients, read-out: Blood plasma level of monepantel, Average): 167 ng/mL | concentration at 8 h ([4]; plasma, oral, 5 mg/kg bw, 8 h, average of patients, read-out: Blood plasma level of monepantel, Average): 68.5 ng/mL | concentration at 12 h ([4]; plasma, oral, 5 mg/kg bw, 12 h, average of patients, read-out: Blood plasma level of monepantel, Average): 30.5 ng/mL | concentration at 24 h ([4]; plasma, oral, 5 mg/kg bw, 24 h, average of patients, read-out: Blood plasma level of monepantel, Average): 14.3 ng/mL | SARS-CoV-2 infectivity (TCID50) (SARS-CoV-2 [5]): reduced SARS-CoV-2 infectivity | concentration at 14 day [6]: 100 nM | SARS-CoV-2 RNA concentrations in the media (qPCR) (SARS-CoV-2 [7]): significantly decrease | SARS-CoV-2 infectivity (TCID50) compared to no treatment (SARS-CoV-2 [8]; MPL 0.064 μM): significantly reduces SARS-CoV-2 infectivity | SARS-CoV-2 infectivity (TCID50, repeat experiment) compared to no treatment (SARS-CoV-2 [8]; MPL 0.137 μM (greatest effect)): significantly reduces SARS-CoV-2 infectivity | SARS-CoV-2 infectivity (TCID50, repeat experiment) (SARS-CoV-2 [8]; MPL 0.411 μM and 0.046 μM): significantly reduced SARS-CoV-2 infectivity | SARS-CoV-2 infectivity (TCID50) (SARS-CoV-2 [8]; MPL 0.32, 1.6 and 8.0 μM): did not significantly reduce | effect upon SARS-CoV-2 infected VERO cells (LDH) (VERO cells [9]): no apparent effect | toxicity caused by SARS-CoV-2 (VERO cells [9]): appeared to increase toxicity | toxicity to Vero cells (LDH) (VERO cells [9]): significant toxicity | toxicity to uninfected VERO cells (VERO cells [9]): some toxicity | SARS-CoV-2 toxicity (VERO cells [9]; African green monkey): does not apparently increase SARS-CoV-2 toxicity | reduction of PBMC RPS6KB1 phosphorylation levels relative to pre-treatment ([10]; PA02, PA06 and PA07, after seven days of treatment): 85.6% | reduction of PBMC RPS6KB1 phosphorylation levels relative to pre-treatment [10, 12]: 27.3% | reduction of PBMC RPS6KB1 phosphorylation levels relative to pre-treatment [10, 13]: 28.6% | reduction of PBMC RPS6KB1 phosphorylation levels relative to pre-treatment [10, 14]: 81.2% | mTOR signalling (decreased RPS6KB1 phosphorylation in PBMCs) ([10]; four patients): inhibited in all four patients | protection against cell death following infection with SARS-CoV-2 [11]: protected VERO cell against cell death | RECIST1.1 response by CT (cancer; patient PA07): progressive disease | RECIST1.1 response by CT (cancer; patients PA02, PA04 and PA06): stable disease
